From patent US12358902B2, “5-(2,5-bis(4-chloro-2-isopropylphenyl)thiophen-3-yl)-1H-tetrazole for the topical treatment of bacterial infections” (DENOVAMED INC., priority 2017, dated 2025)
Values after ≈ are worked out from the molar mass of the structure shown.

Key:
[1] = system: MRSA (ATCC #33591); test: rabbit ischemic wound model; format: in vivo, New Zealand white rabbits
Description: 5-(2,5-bis(4-chloro-2-isopropylphenyl)thiophen-3-yl)-1H-tetrazole was tested for its efficacy against infection in the rabbit ischemic wound model, the gold standard animal model mimicking human DUI. In this model, the ear is made ischemic by division of central and rostral nutrient arteries of New Zealand white rabbits. New Zealand White rabbits were employed for this study and their husbandry and experimental manipulation adhered to standard Guides for the Care and Use of Laboratory Animals (2001). An incision was made to the level of bare cartilage at the base of the ear and followed by injection intradermally with epinephrine to obtain vasoconstriction and aid with skin detachment. Skin is separated from the underlying perichondrium and removed with a 6.0 mm aortic biopsy punch. Food and water were given ad libidum and animals were acclimatized for 7 days with photoperiods of alternating 12 h light and dark provided, along with analgesic (BUPRENEX™ (buprenorphine) 0.02 mg/kg sc) and anaesthesia (isoflurane (0.5-5% with oxygen carrier 0.5-2 L/min) during procedures.
An ischemia wound healing model was conducted surgically. Each wound was inoculated with 50 μl of 2×10^7 CFU/ml MRSA (ATCC #33591) and dressed. After one day, wounds were treated with either 50 μl control cream containing vehicle (N=4), 50 μl containing mupirocin (N=4), or 50 μl cream containing 5-(2,5-bis(4-chloro-2-isopropylphenyl)thiophen-3-yl)-1H-tetrazole (N=8) daily. Clinical observations were performed on days 1, 3, 5, 7, 10 and 14. Wounds were assessed and observations recorded using the Draize scoring system. Digital photographs of each wound were obtained and documented.
On day 14 post-wounding, under anesthesia, the animals were euthanized with an intravenous injection of BEUTHANASIA-D™ ([…] and phenytoin sodium) at a dosage of 150 mg/kg of body weight. Specimens including the entire wound, along with approximately 2-3 mm of the normal unwounded skin margins were harvested. Each ear wound specimen was sectioned into halves. For one half of the wound, the wound was placed into a container with 10% neutral buffered formalin and processed for routine histological evaluation. Wound organization was scored for four parameters on a scale of 0-4 at the wound site for inflammation, granulation, angiogenesis, and epithelialization. Wounds were characterized in a blinded manner by a board certified member of the College of American Pathologists. The other half of the wound was weighed (mg) in a sterile Petri dish, then placed in a sterile disposable tissue grinder and homogenized for quantitative microbiology. The tube containing the ground tissue sample was filled with 5 ml 0.85% sterile saline. Five 1:10 serial dilutions were then prepared with 0.5 ml aliquots and 4.5 ml of sterile saline per aliquot. Subsequently, 0.1 ml of the homogenate and each dilution was drop plated on trypticase soy agar and placed in an incubator at 37° C. The number of viable organisms per wound was recorded as cfu/gram of tissue.

[2] = system: mupirocin resistant strains of E. faecalis; test: activity against mupirocin resistant strains; format: cell-based
[3] = system: mupirocin resistant strains of S. epidermidis; test: activity against mupirocin resistant strains; format: cell-based
[4] = system: USA100 MRSA strain; test: bactericidal activity; format: cell-based
[5] = system: USA300 MRSA strain; test: bactericidal activity; format: cell-based
[6] = biological target: T1, E. coli AcpS (Escherichia coli, UniProt P24224); test: MIC shift upon AcpS over-expression in E. coli strain D22; format: cell-based; conditions: E. coli D22 over-expressing E. coli AcpS, IPTG inducible
T1 construct: expressed in transfected cells; host or cells: E. coli strain D22 (porous outer membrane)
T1 sequence (P24224 whole entry): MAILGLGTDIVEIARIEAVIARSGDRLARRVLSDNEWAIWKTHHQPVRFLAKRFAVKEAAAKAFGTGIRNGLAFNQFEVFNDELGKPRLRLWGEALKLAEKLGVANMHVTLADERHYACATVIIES
Excerpt: (§1) To determine if AcpS inhibition is the main in vivo target that results in bacterial killing by 5-(2,5-bis(4-chloro-2-isopropylphenyl)thiophen-3-yl)-1H-tetrazole, we over-expressed AcpS in bacteria. An E. coli strain genetically engineered to have a porous outer membrane (strain D22) was transformed with a plasmid expressing either E. coli or S. aureus AcpS under control of an IPTG inducible promoter.

[7] = system: S. aureus AcpS; test: as above; format: cell-based; conditions: E. coli D22 over-expressing S. aureus AcpS, IPTG inducible
Excerpt: as §1

[8] = system: fatty acid synthase; test: in vitro enzyme assay, selectivity; format: biochemical; conditions: ACP utilizing bacterial enzyme
[9] = system: MRSA; test: cellulitis model, intra-dermal MRSA; format: in vivo, SKH1 mice; conditions: topical formulation for 7 days
Description: SKH1 mice were injected intra-dermally with MRSA (N=15). 5 mice received neutral control topical formulation for 7 days. 5 mice received a topical formulation containing mupirocin for 7 days. 5 mice received a topical formulation containing 5-(2,5-bis(4-chloro-2-isopropylphenyl)thiophen-3-yl)-1H-tetrazole for 7 days. Lesion area was measured each day. After 7 days, terminal colony forming units (CFUs) were measured to determine microbiological efficacy.

[10] = biological target: LpxA (Escherichia coli, UniProt P0A722); test: in vitro enzyme assay, selectivity; format: biochemical; conditions: ACP utilizing bacterial enzyme
Sequence of LpxA (P0A722 whole entry): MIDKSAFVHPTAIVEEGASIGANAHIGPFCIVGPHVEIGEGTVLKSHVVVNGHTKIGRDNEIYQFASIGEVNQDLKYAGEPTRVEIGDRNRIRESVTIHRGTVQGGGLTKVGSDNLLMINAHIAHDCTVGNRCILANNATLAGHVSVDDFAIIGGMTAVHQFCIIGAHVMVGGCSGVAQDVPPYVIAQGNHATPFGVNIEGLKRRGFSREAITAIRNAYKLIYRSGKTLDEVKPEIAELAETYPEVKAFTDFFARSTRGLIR

[11] = system: S. aureus MRSA USA300 epidemic strain; test: broth microdilution MIC (CLSI); format: cell-based; conditions: Staphylococcus aureus; S. aureus MRSA USA300 epidemic strain; read-out: Antibacterial activity (MIC)
Description: (§2) Using a broth microdilution assay according to Clinical Laboratory Standards Institute (CSLI) guidelines, we tested 5-(2,5-bis(4-chloro-2-isopropylphenyl)thiophen-3-yl)-1H-tetrazole (“Test Article” in below table) to establish MICs against a broad range of MDR bacteria and noted substantive activity versus methicillin-resistant Staphylococcus aureus (MRSA), vancomycin-resistant Enterococcus (VRE) and Streptococcus spp. Antimicrobial susceptibility testing was performed by a microdilution broth assay according to CLSI guidelines. The inoculum was prepared from stationary-phase cultures diluted in water. Microtiter plate wells received aliquots of 100 μL of the compound diluted in Mueller-Hinton II cation adjusted media. The final concentration of compound typically ranged from 250 to 0.125 μg/ml in serial two-fold dilutions. In addition to the test compound, growth and sterility controls were included, along with DMSO vehicle control rows. The microtiter plates were inoculated with 5×10^5 bacteria and incubated overnight at 35° C. in a humidified atmosphere.

[12] = system: S. aureus MRSA MISA MU3 NRS2; test: broth microdilution MIC (CLSI); format: cell-based; conditions: Staphylococcus aureus; S. aureus MRSA MISA MU3 NRS2; read-out: Antibacterial activity (MIC)
Description: as §2

[13] = system: S. aureus MRSA USA100 epidemic strain; test: broth microdilution MIC (CLSI); format: cell-based; conditions: Staphylococcus aureus; S. aureus MRSA USA100 epidemic strain; read-out: Antibacterial activity (MIC)
Description: as §2

[14] = system: S. aureus MRSA clinical isolate ciprofloxacin resistant; test: broth microdilution MIC (CLSI); format: cell-based; conditions: Staphylococcus aureus; S. aureus MRSA clinical isolate ciprofloxacin resistant; read-out: Antibacterial activity (MIC)
Description: as §2

[15] = topical daily, day 14, compared to the control

**Q.** With `CC(C)c1cc(Cl)ccc1-c1cc(-c2nnn[nH]2)c(-c2ccc(Cl)cc2C(C)C)s1` [Test Article, 5-(2,5-bis(4-chloro-2-isopropylphenyl)thiophen-3-yl)-1H-tetrazole] as the molecule, how does the “percent wound contraction over time (FIG. 1)” value ([1]; topical daily to day 14, p<0.001 vs control, p<0.03 vs mupirocin) read?
**A.** better than the mupirocin treated group

**Q.** And the “effect on erythema and edema” value ([1]; topical daily, Draize scoring)?
**A.** positive effect

**Q.** What about the CFU drop [1, 15] of the same molecule?
**A.** 4 log

**Q.** And the “reduction in bacterial survival” value [1, 15]?
**A.** > 99%

**Q.** And the “wound healing and epithelialization” value ([1]; topical daily, versus mupirocin group)?
**A.** significantly better than the mupirocin group

**Q.** And the activity [2]?
**A.** retained activity

**Q.** What about the activity [3] of the same molecule?
**A.** retained activity

**Q.** What about the bactericidal activity [4] of the same molecule?
**A.** rapidly bactericidal

**Q.** And the bactericidal activity [5]?
**A.** rapidly bactericidal

**Q.** And the “shift of MIC to higher concentration upon increased AcpS expression” value [6]?
**A.** 32 fold

**Q.** What about the “shift of MIC to higher concentration upon increased AcpS expression” value [7] of the same molecule?
**A.** 16 fold

**Q.** What about the “inhibition of fatty acid synthase” value [8] of the same molecule?
**A.** did not inhibit

**Q.** And the “terminal CFU count” value ([9]; FIG. 2A)?
**A.** significantly reduce

**Q.** What about the lesion area ([9]; FIG. 2B) of the same molecule?
**A.** significantly reduce

**Q.** What about the “inhibition of LpxA” value [10] of the same molecule?
**A.** did not inhibit

**Q.** What about the MIC [11] of the same molecule?
**A.** 0.5 µg/mL (≈ 1.09 µM)

**Q.** And the MIC [12]?
**A.** 1 µg/mL (≈ 2.19 µM)

**Q.** What about the MIC [13] of the same molecule?
**A.** 1 µg/mL (≈ 2.19 µM)

**Q.** And the MIC [14]?
**A.** 1 µg/mL (≈ 2.19 µM)
